# Reference: US12064514B2, “Ultrasound-sensitive peptide particles for spatially resolved molecule delivery” (The Penn State Research Foundation, priority 2017, dated 2024)
# Legend:
# [1] = target: αVβ3 integrin (Homo sapiens, UniProt P05106+P06756); details: read-out: binding affinity to αVβ3 integrin (IC50, conc. at which 50% of receptor is bound by ligand); cited from earlier work
# [2] = test system: green fluorescent protein (GFP); experiment: screening of fluorine-containing cargo solubilizing agents for GFP dispersion in perfluorocarbon; details: for GFP dispersion efficiency: in PFH, after resuspension in aqueous buffer
# Procedure: For each condition, 200 ul of compounds+PFH was aliquoted into an Eppendorf tube containing individually dried GFP stocks (1 uM) for 9 replicates. Each tube was parafilmed, vortexed, placed on VWR tube rotator overnight at 4° C., and then centrifuged for 5 min at 4000 rpm. Next, 100 ul of each sample was aliquoted onto a black bottom 96-well plate for fluorescence scan from 500 to 560. The 96-well plate was then placed in 37° C. overnight to dry the PFH. The dry samples were resuspended in 100 ul PBS and scanned for fluorescence using BioTek Cytation 3 imaging reader. […] Here, PFH is used as a surrogate for the penultimate solvent perfluoro-n-pentane (PFP) used to form the peptisome core, as PFP has a low boiling point and low surface tension, making it difficult to use in these screening experiments.
# Fluorine-containing cargo solubilizing agent #6 (perfluorononanoic acid, PNFA) was dissolved at various concentrations in PFH to achieve molar ratios with GFP at 400:1 to 50,000:1 fluorine-containing cargo solubilizing agent-to-GFP. For this molar ratio screening, PFNA was vortexed and sonicated to dissolve into PFH at 0.4, 2, 50, and 100 mM. For each condition, 200 ul of PFNA+PFH was aliquoted into an Eppendorf tube containing individually dried GFP (1 uM) for 9 replicates. Each tube was parafilmed, vortexed, placed on VWR tube rotator overnight at 4° C., and then centrifuged for 5 min at 4000 rpm. Next, 100 ul of each sample was aliquoted onto a black bottom 96-well plate for fluorescence scan from 500 to 560. The 96-well plate was then placed in 37° C. overnight to dry the PFH. The dry samples were resuspended in 100 ul PBS and scanned for fluorescence using BioTek Cytation 3 imaging reader.
# For PFH and PFP solvent comparison, 2 mM PFNA was vortexed and sonicated to dissolve into either PFH or PFP on ice. For each condition, 200 ul of adjuvant/PFH or adjuvant/PFP was aliquoted into an Eppendorf tube containing individually dried GFP stocks (1 uM) for 3 replicates. Each tube was parafilmed, vortexed, placed on VWR tube rotator overnight at 4° C., and then centrifuged for 5 min at 4000 rpm. Next, 100 ul of each sample was aliquoted onto a black bottom 96-well plate for fluorescence scan from 500 to 560. The 96-well plate was then placed in 37° C. overnight to dry the PFH and PFP.
# αVβ3 integrin, sequence (P06756 31-1048): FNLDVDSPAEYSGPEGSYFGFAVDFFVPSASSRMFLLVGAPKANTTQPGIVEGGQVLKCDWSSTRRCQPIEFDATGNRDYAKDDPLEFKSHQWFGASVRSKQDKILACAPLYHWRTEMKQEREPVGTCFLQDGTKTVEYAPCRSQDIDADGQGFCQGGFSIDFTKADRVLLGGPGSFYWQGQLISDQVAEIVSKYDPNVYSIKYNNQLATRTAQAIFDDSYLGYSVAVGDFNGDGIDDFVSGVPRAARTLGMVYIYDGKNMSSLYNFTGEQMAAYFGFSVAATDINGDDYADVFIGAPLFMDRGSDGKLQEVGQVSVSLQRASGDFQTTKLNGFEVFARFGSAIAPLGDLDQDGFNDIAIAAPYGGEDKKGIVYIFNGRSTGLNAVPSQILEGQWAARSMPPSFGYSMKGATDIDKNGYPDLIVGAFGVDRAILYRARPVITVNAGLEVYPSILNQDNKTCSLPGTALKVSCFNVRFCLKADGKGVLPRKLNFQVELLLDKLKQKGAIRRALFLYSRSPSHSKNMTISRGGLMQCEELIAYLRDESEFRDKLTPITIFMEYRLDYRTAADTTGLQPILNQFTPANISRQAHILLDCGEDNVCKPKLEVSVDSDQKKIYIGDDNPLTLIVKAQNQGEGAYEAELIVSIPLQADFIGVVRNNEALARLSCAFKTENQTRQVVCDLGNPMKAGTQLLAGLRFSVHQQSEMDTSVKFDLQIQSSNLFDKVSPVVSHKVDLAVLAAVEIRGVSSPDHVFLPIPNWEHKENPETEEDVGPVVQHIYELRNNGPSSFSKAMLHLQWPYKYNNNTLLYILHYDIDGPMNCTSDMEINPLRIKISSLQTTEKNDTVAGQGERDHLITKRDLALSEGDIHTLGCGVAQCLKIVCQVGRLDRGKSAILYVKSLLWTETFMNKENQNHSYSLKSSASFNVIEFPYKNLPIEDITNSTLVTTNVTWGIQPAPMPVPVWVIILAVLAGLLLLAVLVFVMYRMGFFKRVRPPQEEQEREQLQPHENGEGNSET
# αVβ3 integrin, sequence (P05106 27-788): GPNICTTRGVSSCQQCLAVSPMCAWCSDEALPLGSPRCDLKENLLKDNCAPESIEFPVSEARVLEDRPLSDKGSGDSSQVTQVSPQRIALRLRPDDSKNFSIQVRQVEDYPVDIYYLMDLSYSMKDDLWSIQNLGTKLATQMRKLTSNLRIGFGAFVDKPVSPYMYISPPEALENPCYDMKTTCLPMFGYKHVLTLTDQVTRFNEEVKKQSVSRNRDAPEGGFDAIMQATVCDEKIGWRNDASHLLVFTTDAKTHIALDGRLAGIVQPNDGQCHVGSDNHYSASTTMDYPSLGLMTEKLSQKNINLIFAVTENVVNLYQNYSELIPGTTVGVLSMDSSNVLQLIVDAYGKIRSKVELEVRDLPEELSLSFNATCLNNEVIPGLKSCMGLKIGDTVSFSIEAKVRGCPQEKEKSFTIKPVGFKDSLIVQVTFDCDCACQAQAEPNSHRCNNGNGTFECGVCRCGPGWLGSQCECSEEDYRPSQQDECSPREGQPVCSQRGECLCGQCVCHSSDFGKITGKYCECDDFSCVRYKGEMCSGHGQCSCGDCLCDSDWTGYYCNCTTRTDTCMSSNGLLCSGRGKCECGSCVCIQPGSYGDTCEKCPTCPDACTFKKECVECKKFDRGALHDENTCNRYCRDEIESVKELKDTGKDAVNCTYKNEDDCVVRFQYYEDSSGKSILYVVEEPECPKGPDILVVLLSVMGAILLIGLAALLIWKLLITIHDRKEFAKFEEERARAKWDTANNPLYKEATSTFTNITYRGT
Compound,IC50 [1] [nM],GFP dispersion efficiency [2] [%],other results
GRGD,55 ± 7,–,–
"FC(F)(F)C(F)(F)C(F)(F)C(F)(F)C(F)(F)C(F)(F)C(F)(F)C(F)(F)C(F)(F)C(F)(F)C(F)(F)C(F)(F)C(F)(F)C(F)(F)F [Compound 2, perfluoroteradecane]",–,5.1,–
GRGDSPK,12.2 ± 0.1,–,–
RGDS,45 ± 5,–,–
GRGDTP,28 ± 5,–,–
"O=C(O)C(F)(F)C(F)(F)C(F)(F)C(F)(F)F [Compound 5, perfluoropentanoic acid]",–,4.3,–
GRGDNP,45 ± 12,–,–
RGD,89 ± 12,–,–
GRGDS,28 ± 3,–,–
"O=C(O)C(F)(F)C(F)(F)C(F)(F)C(F)(F)C(F)(F)C(F)(F)C(F)(F)C(F)(F)F [Compound 6, perfluorononanoic acid]",–,39.3,"protein dispersed within PFH compared to compound 5 [2]: approximately 10 fold; protein dispersion with PFP compared to PFH ([2]; 2000:1 molar ratio): no significant difference; total GFP loading efficiency into PFH ([2]; molar ratios of 2,000 to 10,000:1 agent-to-GFP): ~63%"
